4 compounds from patent US11331299B2, “Medicinal use of serrulatane diterpenes” (The University of Sydney, priority 2016, dated 2022) can be followed below.

Usually inhibition stands for the relative decrease from the control value, in per cent. For orientation: EC50 means the concentration needed to bring the measured effect to its halfway point. By GI50 is commonly meant the concentration at which growth is held to half of that of the control. For orientation: IC50 means the midpoint of a concentration-inhibition curve.

In one experiment the target is T1, WHSC1(h) (NSD2(h)) (Homo sapiens, UniProt O96028).
T1 sequence (O96028 1-1365): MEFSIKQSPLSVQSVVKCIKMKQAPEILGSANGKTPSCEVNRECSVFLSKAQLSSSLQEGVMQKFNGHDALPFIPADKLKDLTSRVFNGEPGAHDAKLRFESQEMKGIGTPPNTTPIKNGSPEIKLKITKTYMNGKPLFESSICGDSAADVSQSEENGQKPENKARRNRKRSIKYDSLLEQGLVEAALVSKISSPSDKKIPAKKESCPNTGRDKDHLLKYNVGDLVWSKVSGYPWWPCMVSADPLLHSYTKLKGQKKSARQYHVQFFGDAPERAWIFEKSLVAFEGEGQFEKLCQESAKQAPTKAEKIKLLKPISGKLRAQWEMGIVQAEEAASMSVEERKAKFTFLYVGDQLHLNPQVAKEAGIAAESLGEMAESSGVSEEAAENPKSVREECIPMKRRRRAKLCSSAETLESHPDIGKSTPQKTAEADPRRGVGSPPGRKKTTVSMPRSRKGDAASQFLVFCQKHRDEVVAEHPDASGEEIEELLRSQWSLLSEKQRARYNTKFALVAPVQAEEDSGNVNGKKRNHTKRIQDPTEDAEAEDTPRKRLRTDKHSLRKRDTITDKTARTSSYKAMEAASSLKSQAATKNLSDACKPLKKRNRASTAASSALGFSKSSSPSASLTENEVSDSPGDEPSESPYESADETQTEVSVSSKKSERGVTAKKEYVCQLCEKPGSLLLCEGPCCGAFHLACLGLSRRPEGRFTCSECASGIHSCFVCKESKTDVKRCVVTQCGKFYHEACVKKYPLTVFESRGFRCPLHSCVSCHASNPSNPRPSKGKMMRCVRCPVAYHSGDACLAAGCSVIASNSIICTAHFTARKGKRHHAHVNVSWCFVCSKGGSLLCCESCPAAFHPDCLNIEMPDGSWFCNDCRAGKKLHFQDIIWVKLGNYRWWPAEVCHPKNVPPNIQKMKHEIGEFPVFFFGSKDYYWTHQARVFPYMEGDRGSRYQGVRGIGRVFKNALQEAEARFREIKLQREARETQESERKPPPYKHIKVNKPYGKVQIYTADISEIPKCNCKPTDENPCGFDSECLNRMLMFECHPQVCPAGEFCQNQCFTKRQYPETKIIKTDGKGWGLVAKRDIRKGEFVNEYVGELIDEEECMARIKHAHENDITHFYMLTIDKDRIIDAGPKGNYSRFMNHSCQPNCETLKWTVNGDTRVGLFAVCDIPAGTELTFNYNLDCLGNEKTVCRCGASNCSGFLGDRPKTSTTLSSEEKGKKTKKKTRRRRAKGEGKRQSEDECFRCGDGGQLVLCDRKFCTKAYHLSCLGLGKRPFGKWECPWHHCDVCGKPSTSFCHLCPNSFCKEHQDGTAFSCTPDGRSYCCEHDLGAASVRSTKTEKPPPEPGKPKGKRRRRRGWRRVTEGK
Briefly: Epigenetic enzyme assay, Methyltransferases (MTs). The format is biochemical. Conditions: 10 μM; read-out: % Inhibition of Control Values.

Another experiment has as its target T2, FALZ (h) bromodomain (Homo sapiens, UniProt Q12830).
T2 construct: Bromodomain; Eurofins CEREP (France), contract laboratory
The experiment in a line: Epigenetic binding assay, Bromodomain. To be noted: 10 μM; read-out: % Inhibition of Control Specific Binding.

For experiment [1], the system named is A204 (soft tissue sarcoma). Briefly: OncoPanel cell proliferation assay (10-day). Type of experiment: cell-based. Conditions: Homo sapiens; for EC50: read-out: Cell Count EC50; for IC50: read-out: Cell Count IC50.
The target of the next experiment is JARID1C (h) (Homo sapiens, UniProt P41229). Briefly: Epigenetic enzyme assay, Demethylases (KDMs). The format is biochemical. Conditions: read-out: % Inhibition of Control Values.
For a further experiment, the target named is T3, HDAC8 (h) (Homo sapiens, UniProt Q9BY41).
T3 sequence (Q9BY41 1-377): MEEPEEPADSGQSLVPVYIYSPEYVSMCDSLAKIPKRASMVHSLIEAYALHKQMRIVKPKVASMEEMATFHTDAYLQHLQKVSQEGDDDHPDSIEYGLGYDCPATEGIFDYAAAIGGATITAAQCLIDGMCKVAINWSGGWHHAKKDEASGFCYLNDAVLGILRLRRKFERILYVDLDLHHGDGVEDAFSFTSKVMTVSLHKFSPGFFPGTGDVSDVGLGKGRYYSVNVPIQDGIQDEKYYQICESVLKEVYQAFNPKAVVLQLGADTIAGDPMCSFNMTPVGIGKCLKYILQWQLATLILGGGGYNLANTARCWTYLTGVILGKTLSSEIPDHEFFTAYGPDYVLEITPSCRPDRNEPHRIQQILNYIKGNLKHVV
Briefly: Epigenetic enzyme assay, Histone deacetylase (HDACs). The format is biochemical. To be noted: read-out: % Inhibition of Control Values.

Experiment [2] addresses MSK1(h) (substrate histone H3 full length) (Homo sapiens, UniProt O75582). The experiment in a line: Epigenetic enzyme assay, Kinases. Type of experiment: biochemical. Conditions: read-out: % Inhibition of Control Values.
The target in the next experiment is T4, BRD3(2) (h) bromodomain (Homo sapiens, UniProt Q15059).
T4 construct: Bromodomain
Briefly: Epigenetic binding assay, Bromodomain. Conditions: 10 μM; read-out: % Inhibition of Control Specific Binding.

The mark [3] stands for this setting: A204, Soft Tissue - Sarcoma, read-out: Cell Count GI50.

Like-named read-outs stand apart in the source and are kept apart here.

Chain of JARID1C (h) (P41229 whole entry): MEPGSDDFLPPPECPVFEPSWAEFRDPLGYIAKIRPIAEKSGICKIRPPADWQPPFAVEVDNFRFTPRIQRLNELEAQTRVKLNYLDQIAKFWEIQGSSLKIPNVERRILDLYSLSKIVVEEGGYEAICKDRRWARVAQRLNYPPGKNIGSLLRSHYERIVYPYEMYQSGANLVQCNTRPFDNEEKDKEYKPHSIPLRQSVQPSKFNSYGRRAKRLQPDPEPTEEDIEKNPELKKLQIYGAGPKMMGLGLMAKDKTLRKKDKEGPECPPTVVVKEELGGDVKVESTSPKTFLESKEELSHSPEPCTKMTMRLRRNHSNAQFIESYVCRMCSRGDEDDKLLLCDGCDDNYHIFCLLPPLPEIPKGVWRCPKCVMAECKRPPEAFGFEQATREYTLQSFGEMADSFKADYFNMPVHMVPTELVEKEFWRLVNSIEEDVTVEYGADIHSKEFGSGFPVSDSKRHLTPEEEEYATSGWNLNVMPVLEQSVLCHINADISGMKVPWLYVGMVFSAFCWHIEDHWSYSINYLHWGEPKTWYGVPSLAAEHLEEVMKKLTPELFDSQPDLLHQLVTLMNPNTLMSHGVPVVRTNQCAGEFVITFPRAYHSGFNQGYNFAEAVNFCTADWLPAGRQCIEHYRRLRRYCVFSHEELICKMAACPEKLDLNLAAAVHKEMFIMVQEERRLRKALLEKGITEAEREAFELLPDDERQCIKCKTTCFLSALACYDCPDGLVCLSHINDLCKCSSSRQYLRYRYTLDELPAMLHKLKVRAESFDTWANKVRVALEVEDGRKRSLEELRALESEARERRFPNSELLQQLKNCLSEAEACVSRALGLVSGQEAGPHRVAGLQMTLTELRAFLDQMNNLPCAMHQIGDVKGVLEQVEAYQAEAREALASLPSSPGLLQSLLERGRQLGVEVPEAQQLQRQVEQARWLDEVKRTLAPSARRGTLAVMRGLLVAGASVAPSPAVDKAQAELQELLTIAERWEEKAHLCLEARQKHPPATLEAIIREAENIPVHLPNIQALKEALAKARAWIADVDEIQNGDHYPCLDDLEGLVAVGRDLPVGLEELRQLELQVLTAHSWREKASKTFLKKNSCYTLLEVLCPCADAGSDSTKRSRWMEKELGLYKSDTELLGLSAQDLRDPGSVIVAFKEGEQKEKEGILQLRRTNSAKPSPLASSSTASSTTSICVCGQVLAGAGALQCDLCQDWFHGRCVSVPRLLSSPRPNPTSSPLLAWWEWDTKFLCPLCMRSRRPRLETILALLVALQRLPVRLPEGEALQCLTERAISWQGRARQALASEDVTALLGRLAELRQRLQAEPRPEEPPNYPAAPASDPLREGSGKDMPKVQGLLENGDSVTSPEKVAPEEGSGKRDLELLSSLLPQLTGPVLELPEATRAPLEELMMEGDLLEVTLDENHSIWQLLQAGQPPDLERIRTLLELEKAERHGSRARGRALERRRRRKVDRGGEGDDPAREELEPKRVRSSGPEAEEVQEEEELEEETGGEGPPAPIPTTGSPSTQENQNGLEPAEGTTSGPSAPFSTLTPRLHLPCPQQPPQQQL
Chain of MSK1(h) (substrate histone H3 full length) (O75582 whole entry): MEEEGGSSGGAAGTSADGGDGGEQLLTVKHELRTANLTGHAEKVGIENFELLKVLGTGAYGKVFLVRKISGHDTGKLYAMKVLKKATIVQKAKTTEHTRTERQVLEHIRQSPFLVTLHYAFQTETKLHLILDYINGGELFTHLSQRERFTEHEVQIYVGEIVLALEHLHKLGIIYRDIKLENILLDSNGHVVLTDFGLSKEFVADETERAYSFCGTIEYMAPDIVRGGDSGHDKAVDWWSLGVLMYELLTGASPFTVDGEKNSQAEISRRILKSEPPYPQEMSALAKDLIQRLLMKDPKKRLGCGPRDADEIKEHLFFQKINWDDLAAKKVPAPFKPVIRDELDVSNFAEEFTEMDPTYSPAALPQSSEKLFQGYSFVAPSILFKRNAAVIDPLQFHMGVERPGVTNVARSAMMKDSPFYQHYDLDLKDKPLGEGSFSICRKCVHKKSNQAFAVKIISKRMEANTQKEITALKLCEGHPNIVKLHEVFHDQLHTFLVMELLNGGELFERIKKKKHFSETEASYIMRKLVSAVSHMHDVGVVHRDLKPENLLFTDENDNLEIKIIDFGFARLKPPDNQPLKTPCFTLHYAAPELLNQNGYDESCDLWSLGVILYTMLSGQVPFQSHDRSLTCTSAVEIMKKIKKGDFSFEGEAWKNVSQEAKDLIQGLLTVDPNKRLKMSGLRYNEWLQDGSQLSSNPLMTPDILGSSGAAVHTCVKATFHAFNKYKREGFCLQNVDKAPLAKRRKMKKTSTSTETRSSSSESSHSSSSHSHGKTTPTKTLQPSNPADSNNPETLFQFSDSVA
T4 sequence (Q15059 306-415 limits assumed): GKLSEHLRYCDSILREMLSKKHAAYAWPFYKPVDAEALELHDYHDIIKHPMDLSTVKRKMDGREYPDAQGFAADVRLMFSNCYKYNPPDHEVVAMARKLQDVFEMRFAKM

`CC(C)=CCC[C@H](CO)[C@@H]1CC[C@@H](C)c2c1cc(C)c(O)c2O` [Compound 1, 7,8,18-trihydroxyserrulat-14-ene]: the inhibition at 10 µM is 3% at WHSC1(h) (NSD2(h)); 42% at FALZ (h) bromodomain; 49% on JARID1C (h); -8% at HDAC8 (h); 6% in experiment [2]; 35% on BRD3(2) (h) bromodomain. For the same compound, in experiment [1] (A204, Soft Tissue - Sarcoma), the EC50 is 520 nM. Besides, in experiment [1] (setting [3]), the concentration for 50% growth inhibition (GI50) is 520 nM. Also, the half-maximal inhibitory concentration (IC50) in experiment [1] (A204, Soft Tissue - Sarcoma) came out at 540 nM.
Take `CC(C)=CCC[C@H](C)[C@@H]1CC[C@@H](C)c2c1cc(C)c(O)c2O` [Compound 4, 7,8-dihydroxyserrulat-14-ene]: in experiment [1] (A204, read-out: GI50), the 50% growth inhibitory concentration (GI50) worked out at 684 nM. Further, in experiment [1] (A204, Soft Tissue - Sarcoma), the half-maximal effective concentration (EC50) worked out at 720 nM and the IC50 stood at 720 nM. The GI50 in experiment [1] (setting [3]) is 680 nM.
Take `CC(C)=CCC[C@@H]1COc2c(C)cc(O)c3c2[C@H]1CC[C@H]3C` [Compound 3, 5,18-epoxy-8-hydroxyserrulat-14-ene]: the inhibition at 10 µM on WHSC1(h) (NSD2(h)) was found to be 7%; on FALZ (h) bromodomain, 5%; at JARID1C (h), 25%; on HDAC8 (h), 0%; in experiment [2], 10%; at BRD3(2) (h) bromodomain, 1%.
Take `CC(C)=CCC[C@@H]1C(O)Oc2c(C)cc(O)c3c2[C@H]1CC[C@H]3C` (stereo partly shown) [Compound 2, 5,18-epoxyserrulat-14-en-8,18-diol]: the inhibition at 10 µM was 14% at WHSC1(h) (NSD2(h)); 18% on FALZ (h) bromodomain; -13% on JARID1C (h); -19% on HDAC8 (h); 2% in experiment [2]; 25% on BRD3(2) (h) bromodomain. In addition, the EC50 in experiment [1] (A204, Soft Tissue - Sarcoma) came to 8460 nM. Besides, the GI50 in experiment [1] (setting [3]) came to 8500 nM. For the same compound, the IC50 in experiment [1] (A204, Soft Tissue - Sarcoma) was determined as 8540 nM.
